These compounds were tested on Abutilon theophrasti (assay: Pre-emergence herbicidal activity, glasshouse pot test). Details: pre-emergence spray, rate 1000 g/ha, evaluated after 13 days, scale 0-5.
Format: in vivo
Outline: (§1)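 Seeds sown in standard soil were sprayed one day after sowing, before emergence, with compound formulated in acetone/water (50:50) plus 0.5% Tween 20. Plants were grown at 24/16 °C day/night, 14 h light, 65% humidity, watered twice daily, and damage was scored after 13 days (0 = none, 5 = total).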

Row | SMILES | ABUTH damage score, application pre-emergence
1 | CC1=C(Cl)C(=O)N(c2cc(C(F)(F)F)c(-c3cccc(C#N)c3)cn2)C1O (stereo not drawn) [AF95] | 0
2 | CCN(CC)C(=O)c1cnc(N2C(=O)C(Cl)=C(C)C2O)cc1C(F)(F)F (stereo not drawn) [AF96] | 0
3 | CC1=C(Cl)C(=O)N(c2cc(C(F)(F)Cl)ccn2)C1O (stereo not drawn) [AF98] | 1
4 | CCc1cc(N2C(=O)C(Cl)=C(C)C2O)ncc1Br (stereo not drawn) [AF99] | 0
5 | CC1=C(Cl)C(=O)N(c2cc(C(C)(C)C#N)ccn2)C1O (stereo not drawn) [AF100] | 3
6 | CCOC(=O)c1cnc(N2C(=O)C(Cl)=C(C)C2O)cc1Cl (stereo not drawn) [AF101] | 1

What follows are compounds tested on Alopecurus myosuroides in the same assay as above. Details: pre-emergence spray, rate 1000 g/ha, evaluated after 13 days, scale 0-5.
Format: in vivo
Outline: as §1

Row | SMILES | ALOMY damage score, application pre-emergence
7 | CC1=C(Cl)C(=O)N(c2cc(C(F)(F)F)c(-c3cccc(C#N)c3)cn2)C1O (stereo not drawn) [AF95] | 0
8 | CCN(CC)C(=O)c1cnc(N2C(=O)C(Cl)=C(C)C2O)cc1C(F)(F)F (stereo not drawn) [AF96] | 0
9 | CC1=C(Cl)C(=O)N(c2cc(C(F)(F)Cl)ccn2)C1O (stereo not drawn) [AF98] | 3
10 | CCc1cc(N2C(=O)C(Cl)=C(C)C2O)ncc1Br (stereo not drawn) [AF99] | 2
11 | CC1=C(Cl)C(=O)N(c2cc(C(C)(C)C#N)ccn2)C1O (stereo not drawn) [AF100] | 4
12 | CCOC(=O)c1cnc(N2C(=O)C(Cl)=C(C)C2O)cc1Cl (stereo not drawn) [AF101] | 0

What follows are compounds tested on Amaranthus retroflexus in the same assay as above. Details: pre-emergence spray, rate 1000 g/ha, evaluated after 13 days, scale 0-5.
Format: in vivo
Outline: as §1

Row | SMILES | AMARE damage score, application pre-emergence
13 | CC1=C(Cl)C(=O)N(c2cc(C(F)(F)F)c(-c3cccc(C#N)c3)cn2)C1O (stereo not drawn) [AF95] | 0
14 | CCN(CC)C(=O)c1cnc(N2C(=O)C(Cl)=C(C)C2O)cc1C(F)(F)F (stereo not drawn) [AF96] | 0
15 | CC1=C(Cl)C(=O)N(c2cc(C(F)(F)Cl)ccn2)C1O (stereo not drawn) [AF98] | 5
16 | CCc1cc(N2C(=O)C(Cl)=C(C)C2O)ncc1Br (stereo not drawn) [AF99] | 2
17 | CC1=C(Cl)C(=O)N(c2cc(C(C)(C)C#N)ccn2)C1O (stereo not drawn) [AF100] | 5
18 | CCOC(=O)c1cnc(N2C(=O)C(Cl)=C(C)C2O)cc1Cl (stereo not drawn) [AF101] | 2

Each compound was assayed on Echinochloa crus-galli in the same assay as above. Details: pre-emergence spray, rate 1000 g/ha, evaluated after 13 days, scale 0-5.
Format: in vivo
Outline: as §1

Row | SMILES | ECHCG damage score, application pre-emergence
19 | CC1=C(Cl)C(=O)N(c2cc(C(F)(F)F)c(-c3cccc(C#N)c3)cn2)C1O (stereo not drawn) [AF95] | 0
20 | CCN(CC)C(=O)c1cnc(N2C(=O)C(Cl)=C(C)C2O)cc1C(F)(F)F (stereo not drawn) [AF96] | 0
21 | CC1=C(Cl)C(=O)N(c2cc(C(F)(F)Cl)ccn2)C1O (stereo not drawn) [AF98] | 5
22 | CCc1cc(N2C(=O)C(Cl)=C(C)C2O)ncc1Br (stereo not drawn) [AF99] | 2
23 | CC1=C(Cl)C(=O)N(c2cc(C(C)(C)C#N)ccn2)C1O (stereo not drawn) [AF100] | 5
24 | CCOC(=O)c1cnc(N2C(=O)C(Cl)=C(C)C2O)cc1Cl (stereo not drawn) [AF101] | 0

The compounds below were run on Setaria faberi in the same assay as above. Details: pre-emergence spray, rate 1000 g/ha, evaluated after 13 days, scale 0-5.
Format: in vivo
Outline: as §1

Row | SMILES | SETFA damage score, application pre-emergence
25 | CC1=C(Cl)C(=O)N(c2cc(C(F)(F)F)c(-c3cccc(C#N)c3)cn2)C1O (stereo not drawn) [AF95] | 0
26 | CCN(CC)C(=O)c1cnc(N2C(=O)C(Cl)=C(C)C2O)cc1C(F)(F)F (stereo not drawn) [AF96] | 0
27 | CC1=C(Cl)C(=O)N(c2cc(C(F)(F)Cl)ccn2)C1O (stereo not drawn) [AF98] | 5
28 | CCc1cc(N2C(=O)C(Cl)=C(C)C2O)ncc1Br (stereo not drawn) [AF99] | 1
29 | CC1=C(Cl)C(=O)N(c2cc(C(C)(C)C#N)ccn2)C1O (stereo not drawn) [AF100] | 5
30 | CCOC(=O)c1cnc(N2C(=O)C(Cl)=C(C)C2O)cc1Cl (stereo not drawn) [AF101] | 0

Each compound was assayed on zea mays in the same assay as above. Details: pre-emergence spray, rate 1000 g/ha, evaluated after 13 days, scale 0-5.
Format: in vivo
Outline: as §1

Row | SMILES | ZEAMX damage score, application pre-emergence
31 | CC1=C(Cl)C(=O)N(c2cc(C(F)(F)F)c(-c3cccc(C#N)c3)cn2)C1O (stereo not drawn) [AF95] | 0
32 | CCN(CC)C(=O)c1cnc(N2C(=O)C(Cl)=C(C)C2O)cc1C(F)(F)F (stereo not drawn) [AF96] | 0
33 | CC1=C(Cl)C(=O)N(c2cc(C(F)(F)Cl)ccn2)C1O (stereo not drawn) [AF98] | 2
34 | CCc1cc(N2C(=O)C(Cl)=C(C)C2O)ncc1Br (stereo not drawn) [AF99] | 1
35 | CC1=C(Cl)C(=O)N(c2cc(C(C)(C)C#N)ccn2)C1O (stereo not drawn) [AF100] | 3
36 | CCOC(=O)c1cnc(N2C(=O)C(Cl)=C(C)C2O)cc1Cl (stereo not drawn) [AF101] | 0

Each compound was assayed on Abutilon theophrasti (assay: Post-emergence herbicidal activity, glasshouse pot test). Details: Application post-emergence, rate 1000 g/ha, evaluated after 13 days.
Format: in vivo
Parameters: key: 0 = no damage to plant, 5 = total damage to plant
Outline: (§2)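 Seeds sown in standard soil in pots, grown 8 days in glasshouse (24/16 °C day/night, 14 h light, 65% humidity), then sprayed with aqueous solution from active ingredient formulated in acetone/water (50:50) with 0.5% Tween 20. Plants regrown under same conditions, watered twice daily; damage scored after 13 days (0 none–5 total).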

Row | SMILES | ABUTH herbicidal damage score
37 | CC1=C(Cl)C(=O)N(c2cc(C(F)(F)F)c(-c3cccc(C#N)c3)cn2)C1O (stereo not drawn) [AF95] | 3
38 | CCN(CC)C(=O)c1cnc(N2C(=O)C(Cl)=C(C)C2O)cc1C(F)(F)F (stereo not drawn) [AF96] | 0
39 | CC1=C(Cl)C(=O)N(c2cc(C(F)(F)Cl)ccn2)C1O (stereo not drawn) [AF98] | 5
40 | CCc1cc(N2C(=O)C(Cl)=C(C)C2O)ncc1Br (stereo not drawn) [AF99] | 5
41 | CC1=C(Cl)C(=O)N(c2cc(C(C)(C)C#N)ccn2)C1O (stereo not drawn) [AF100] | 5
42 | CCOC(=O)c1cnc(N2C(=O)C(Cl)=C(C)C2O)cc1Cl (stereo not drawn) [AF101] | 5

The compounds below were run on Alopecurus myosuroides in the same assay as above. Details: Application post-emergence, rate 1000 g/ha, evaluated after 13 days.
Format: in vivo
Parameters: key: 0 = no damage to plant, 5 = total damage to plant
Outline: as §2

Row | SMILES | ALOMY herbicidal damage score
43 | CC1=C(Cl)C(=O)N(c2cc(C(F)(F)F)c(-c3cccc(C#N)c3)cn2)C1O (stereo not drawn) [AF95] | 2
44 | CCN(CC)C(=O)c1cnc(N2C(=O)C(Cl)=C(C)C2O)cc1C(F)(F)F (stereo not drawn) [AF96] | 0
45 | CC1=C(Cl)C(=O)N(c2cc(C(F)(F)Cl)ccn2)C1O (stereo not drawn) [AF98] | 5
46 | CCc1cc(N2C(=O)C(Cl)=C(C)C2O)ncc1Br (stereo not drawn) [AF99] | 5
47 | CC1=C(Cl)C(=O)N(c2cc(C(C)(C)C#N)ccn2)C1O (stereo not drawn) [AF100] | 5
48 | CCOC(=O)c1cnc(N2C(=O)C(Cl)=C(C)C2O)cc1Cl (stereo not drawn) [AF101] | 2

Each compound was assayed on Amaranthus retroflexus in the same assay as above. Details: Application post-emergence, rate 1000 g/ha, evaluated after 13 days.
Format: in vivo
Parameters: key: 0 = no damage to plant, 5 = total damage to plant
Outline: as §2

Row | SMILES | AMARE herbicidal damage score
49 | CC1=C(Cl)C(=O)N(c2cc(C(F)(F)F)c(-c3cccc(C#N)c3)cn2)C1O (stereo not drawn) [AF95] | 5
50 | CCN(CC)C(=O)c1cnc(N2C(=O)C(Cl)=C(C)C2O)cc1C(F)(F)F (stereo not drawn) [AF96] | 0
51 | CC1=C(Cl)C(=O)N(c2cc(C(F)(F)Cl)ccn2)C1O (stereo not drawn) [AF98] | 5
52 | CCc1cc(N2C(=O)C(Cl)=C(C)C2O)ncc1Br (stereo not drawn) [AF99] | 5
53 | CC1=C(Cl)C(=O)N(c2cc(C(C)(C)C#N)ccn2)C1O (stereo not drawn) [AF100] | 5
54 | CCOC(=O)c1cnc(N2C(=O)C(Cl)=C(C)C2O)cc1Cl (stereo not drawn) [AF101] | 5

What follows are compounds tested on Echinochloa crus-galli in the same assay as above. Details: Application post-emergence, rate 1000 g/ha, evaluated after 13 days.
Format: in vivo
Parameters: key: 0 = no damage to plant, 5 = total damage to plant
Outline: as §2

Row | SMILES | ECHCG herbicidal damage score
55 | CC1=C(Cl)C(=O)N(c2cc(C(F)(F)F)c(-c3cccc(C#N)c3)cn2)C1O (stereo not drawn) [AF95] | 2
56 | CCN(CC)C(=O)c1cnc(N2C(=O)C(Cl)=C(C)C2O)cc1C(F)(F)F (stereo not drawn) [AF96] | 0
57 | CC1=C(Cl)C(=O)N(c2cc(C(F)(F)Cl)ccn2)C1O (stereo not drawn) [AF98] | 5
58 | CCc1cc(N2C(=O)C(Cl)=C(C)C2O)ncc1Br (stereo not drawn) [AF99] | 5
59 | CC1=C(Cl)C(=O)N(c2cc(C(C)(C)C#N)ccn2)C1O (stereo not drawn) [AF100] | 5
60 | CCOC(=O)c1cnc(N2C(=O)C(Cl)=C(C)C2O)cc1Cl (stereo not drawn) [AF101] | 3

Each compound was assayed on Setaria faberi in the same assay as above. Details: Application post-emergence, rate 1000 g/ha, evaluated after 13 days.
Format: in vivo
Parameters: key: 0 = no damage to plant, 5 = total damage to plant
Outline: as §2

Row | SMILES | SETFA herbicidal damage score
61 | CC1=C(Cl)C(=O)N(c2cc(C(F)(F)F)c(-c3cccc(C#N)c3)cn2)C1O (stereo not drawn) [AF95] | 4
62 | CCN(CC)C(=O)c1cnc(N2C(=O)C(Cl)=C(C)C2O)cc1C(F)(F)F (stereo not drawn) [AF96] | 0
63 | CC1=C(Cl)C(=O)N(c2cc(C(F)(F)Cl)ccn2)C1O (stereo not drawn) [AF98] | 5
64 | CCc1cc(N2C(=O)C(Cl)=C(C)C2O)ncc1Br (stereo not drawn) [AF99] | 4
65 | CC1=C(Cl)C(=O)N(c2cc(C(C)(C)C#N)ccn2)C1O (stereo not drawn) [AF100] | 5
66 | CCOC(=O)c1cnc(N2C(=O)C(Cl)=C(C)C2O)cc1Cl (stereo not drawn) [AF101] | 5

What follows are compounds tested on zea mays in the same assay as above. Details: Application post-emergence, rate 1000 g/ha, evaluated after 13 days.
Format: in vivo
Parameters: key: 0 = no damage to plant, 5 = total damage to plant
Outline: as §2

Row | SMILES | ZEAMX herbicidal damage score
67 | CC1=C(Cl)C(=O)N(c2cc(C(F)(F)F)c(-c3cccc(C#N)c3)cn2)C1O (stereo not drawn) [AF95] | 2
68 | CCN(CC)C(=O)c1cnc(N2C(=O)C(Cl)=C(C)C2O)cc1C(F)(F)F (stereo not drawn) [AF96] | 1
69 | CC1=C(Cl)C(=O)N(c2cc(C(F)(F)Cl)ccn2)C1O (stereo not drawn) [AF98] | 3
70 | CCc1cc(N2C(=O)C(Cl)=C(C)C2O)ncc1Br (stereo not drawn) [AF99] | 1
71 | CC1=C(Cl)C(=O)N(c2cc(C(C)(C)C#N)ccn2)C1O (stereo not drawn) [AF100] | 4
72 | CCOC(=O)c1cnc(N2C(=O)C(Cl)=C(C)C2O)cc1Cl (stereo not drawn) [AF101] | 1

From US9963445B2, “Chemical compounds” (SYNGENTA PARTICIPATIONS AG, priority 2013, dated 2018)
